The test system of test [1] is SPS domain. Kind of test: SPS phosphorylation detected by anti pSPS Ab Western blot. Conditions: COS7 cells; for SPS phosphorylation upon stimulation (anti pSPS Ab recognition): stimulated with VOOH, TPA, EGF or TGFβ, immunoprecipitation and Western blot. Format: cell-based. The protocol:
FIGS. 4A-4I are autoradiographs characterizing SPS phosphorylation using an Ab to the phosphorylated SPS domain. FIG. 4A illustrates an elevation of pSPS detection upon stimulation. COS cells were transfected with WT-GFP-ERK2. Twenty-four hr after transfection, the cells were serum-starved for 16 hr and subsequently treated with the general stimulator VOOH (V, 100 μM Na3VO4 and 200 μM H2O2, 15 min), TPA (T, 250 nM, 15 min), EGF (E, 50 ng/ml for 15 min), or left untreated (NT). The GFP-ERK2 was immunoprecipitated with anti GFP Ab, extensively washed, and the IP was then subjected to Western blotting with anti phospho SPS-ERK (αphoSPS-ERK) and anti general ERK (αgen-ERK) Abs. FIG. 4B is a time course of SPS phosphorylation. COS7 cells overexpressing WT-GFP-ERK2 were serum starved followed by EGF stimulation for the indicated time points. The lysates were then subjected to Western blot analysis as in FIG. 4A. FIGS. 4C-D. GFP-ERK2 was immunoprecipitated from VOOH stimulated (Act) or non-stimulated (NT), transfected COS7 cells as above. The immunoprecipitated protein was then incubated with shrimp's alkaline phosphates (SAP, 15 units, 30 min, 30° C. in the manufacturer digestion buffer), and subjected to Western blot analysis with anti phosphoSPS-ERK (αpSPS; FIG. 4C), anti phosphoTEY-ERK (αpTEY; FIG. 4D), and anti general-ERK Ab (αgen-ERK; FIGS. 4C, D). FIG. 4E. Elevation of anti pSPS Ab immunoreactivity upon stimulation of endogenous ERKs. Following serum starvation COS7 cells were treated with EGF (50 ng/ml) or VOOH (V, 100 μM Na3VO4 and 200 μM H2O2) for the indicated times. SPS phosphorylation was detected using the anti pSPS Abs, and this was compared to the amount of genral ERKs detected by αgERK. FIG. 4F. Specificity of the anti pSPS Ab. COS7 cells overexpressing either GFP-ERK2 or 244-6A mutant were serum starved for 16 hr, and then treated with EGF (50 ng/ml) for 15 min following WB analysis using αpSPS and αgERK Abs. FIG. 4G. TEY phosphorylation is not required for SPS phosphorylation. COS7 cells overexpressing WT-ERK2 or TEY-AAA were treated as described in D. FIG. 4H. COS7 cells were treated with or without UO126 prior (15 min) to EGF (50 ng/ml) stimulation for the indicated times. SPS-phosphorylation was detected using αpSPS and αgERK Abs. FIG. 4I. Phosphorylation of SPS is mediated by ERK autophosphorylation. […] The phosphorylation (^32P-ERK2) of ERK and its mutants was detected by autoradiography. […]
FIG. 9B is an autoradiograph illustrating that stimulation elevates pSPS phosphorylation of 2GFP-SPS construct. […] The total amount of immunoprecipitated 2GFP-SPS was detected with αGFP Ab. […]

Test [2] has as its target T1, importin-7 (Homo sapiens, UniProt O95373).
T1 construct: endogenous in cells; host or cells: HeLa
Kind of test: Coimmunoprecipitation with importin-7. To be noted: HeLa cells. Type of test: binding. The procedure:
FIGS. 19A-19C are autoradiographs illustrating that phospho-SPS interacts with importin-7 and releases Nup153c binding without involvment of importin-β. […]. Interaction of ERK2 with Importin-7 is enhanced by EGF stimulation and EPE mutation. HeLa cells overexpressing WT-ERK (WT), ERK-APA (APA), ERK-EPE (EPE) or GFP were serum starved and treated with EGF (50 ng/ml, 10 min). The extracts of the treated cells were then subjected to coimmunoprecipitation using A/G beads pre-conjugated with anti GFP Ab and mild washes. The coimmunoprecipitated importin-7 (first panel) and importin-β (third panel), as well as their loading amounts (panels 2 and 4 respectively) were determined by WB using anti importin-7 (αImp7) and importin-β (αImpβ) Abs. The equal amount of immunoprecipitated ERKs was determined with anti GFP (αGFP; IP) Ab. FIG. 19B. Interaction of 2GFP-SPS and its mutants with importin-7. HeLa cells overexpressing 2GFP, 2GFP-SPS, 2GFP-APA and 2GFP-EPE constructs were subjected to coimmunoprecipitation as described in FIG. 19A (without EGF stimulation). FIG. 19C. Interaction of NUP153 with WTERK2 and its APA and EPE mutants. NUP153c is elevated in APA-ERK2, but reduced in EPE-ERK2. Immunoprecipitated and stringently washed WT-ERK2 (WT), APA-ERK2 (APA) or ERK2 from […] cells pre-treated with or without TPA (250 nM, 15 min) were incubated with 0.5 μg recombinant His-Nup153c. This was followed by mild washing, and the beads were then subjected to Western blot analysis using anti His (αHis) and anti αGFP Abs.
Immunoprecipitation. Cellular extracts of stimulated transfected cells, were incubated with anti-GFP antibody preconugated to A/G beads (Santa Cruz; (2 hr, 4° C.). Subsequently, the beads were washed twice with HNTG buffer and once with 0.5 M LiCl. The immunoprecipitates were subjected either to Western blotting as described above or to an in vitro phosphatase assay as described under Results.

Ends that are not written are not given here. 2GFP = dimer of GFP proteins

T1 sequence (O95373 whole entry): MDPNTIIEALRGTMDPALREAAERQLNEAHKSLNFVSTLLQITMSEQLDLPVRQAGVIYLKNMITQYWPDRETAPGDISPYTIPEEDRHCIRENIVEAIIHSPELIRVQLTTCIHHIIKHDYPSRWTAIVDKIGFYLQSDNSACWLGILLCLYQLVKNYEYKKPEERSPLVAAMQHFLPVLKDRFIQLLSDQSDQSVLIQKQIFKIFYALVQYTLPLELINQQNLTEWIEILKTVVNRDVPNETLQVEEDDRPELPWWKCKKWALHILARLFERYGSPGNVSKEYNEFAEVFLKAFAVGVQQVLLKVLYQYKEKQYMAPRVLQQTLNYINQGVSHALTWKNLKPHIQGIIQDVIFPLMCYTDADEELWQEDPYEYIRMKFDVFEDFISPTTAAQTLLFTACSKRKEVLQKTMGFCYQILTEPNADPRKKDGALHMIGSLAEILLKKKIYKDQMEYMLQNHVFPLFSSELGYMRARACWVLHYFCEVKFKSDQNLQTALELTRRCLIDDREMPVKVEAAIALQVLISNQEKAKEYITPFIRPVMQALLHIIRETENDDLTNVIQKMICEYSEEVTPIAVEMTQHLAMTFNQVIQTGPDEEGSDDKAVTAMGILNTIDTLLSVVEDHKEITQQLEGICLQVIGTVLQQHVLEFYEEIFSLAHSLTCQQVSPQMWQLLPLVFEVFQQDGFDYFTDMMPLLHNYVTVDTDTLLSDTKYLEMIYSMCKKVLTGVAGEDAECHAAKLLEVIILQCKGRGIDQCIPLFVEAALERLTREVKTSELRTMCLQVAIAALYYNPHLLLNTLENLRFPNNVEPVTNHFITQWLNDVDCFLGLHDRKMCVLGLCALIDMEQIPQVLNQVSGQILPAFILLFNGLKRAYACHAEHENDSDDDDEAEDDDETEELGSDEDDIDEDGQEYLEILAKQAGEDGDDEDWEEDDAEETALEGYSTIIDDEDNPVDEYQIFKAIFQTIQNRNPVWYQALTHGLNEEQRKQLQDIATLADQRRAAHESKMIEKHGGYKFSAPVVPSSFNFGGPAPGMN

Consider “WT-ERK2: wild-type ERK2 fused to GFP, prepared in pEGFP C1 [reference compound]”, for which the “time of peak SPS phosphorylation” value in test [1] (following EGF stimulation) turned out to be 15 min. For the same substance, in test [1], the “SPS phosphorylation upon stimulation (anti pSPS Ab recognition)” value is “significantly increased”. In test [2] (coimmunoprecipitation with anti GFP Ab, with or without stimulation), the “interaction of ERK2 constructs with importin-7” value is listed as “significantly increased upon TPA stimulation”.
Turning to “2GFP-SPS: 2GFP with the 19 amino acid stretch containing the SPS of ERK2 (SEQ ID NO: 6) fused to its C terminus (2GFP-LDQLNHILGILGSPSQEDL)”, the “SPS phosphorylation upon stimulation (anti pSPS Ab recognition)” value in test [1] is given as “elevates”. Moreover, in test [2] (coimmunoprecipitation, without EGF stimulation), the “interaction of 2GFP constructs with importin-7” value is reported as “did bind importin-7”.

The record behind these values is patent US10000771B2, “Nuclear targeting sequences” (Yeda Research and Development Co. Ltd., priority 2007, dated 2018).
